From paper PMC9131456, “Structure-Based Discovery of Lipoteichoic Acid Synthase Inhibitors” (Journal of Chemical Information and Modeling, 2022)

Experiments:
eLtaS = molecular target: T1, eLtaS (Staphylococcus aureus, UniProt Q2G093); test: Differential scanning fluorimetry (DSF) of eLtaS; assay type: binding, S. aureus
T1 construct: LtaS is a transmembrane protein with a large extracellular catalytic domain (denoted as eLtaS); His-tag; made in house; host or cells: E. coli (Rosetta; plasmid pProEX-eLtaS from strain ANG571)
Experimental: DSF assays were performed on eLtaS using the CFX Connect RT-PCR system (Bio-rad) using the protocol described previously.[43] Solutions containing 5 μM eLtaS protein in DSF buffer (25 mM Trizma-HCl, pH 7.5, 100 mM NaCl, 10% glycerol, 1 mM EDTA, 20× SYPRO Orange) with compounds at the appropriate concentrations were dispensed onto 96-well PCR plates in triplicate. The plates were sealed with Microseal “B” PCR Plate Sealing Film (Bio-rad) prior to the DSF run. The emitted fluorescence at 568 nm was measured from 25 to 65 °C at a step ramp rate of 0.5 °C every 30 s. Prism GraphPad v.5 was used for curve fitting, and the melting temperature Tm for each curves was derived from the Boltzmann equation.

HEK293 cells = test: LDH release cytotoxicity assay; assay type: cell-based, human; conditions: 200 μM compound, 24 h
Experimental: The human embryonic kidney (HEK293) cells were maintained in Dulbecco’s modified Eagle medium (DMEM) supplemented with 10% fetal bovine serum and 100 units/mL of penicillin–streptomycin. For the cell viability assays, cells were seeded onto 96-well plates at a density of 4 × 10^4 cells/well and grown at 37 °C at 5% CO2. After incubating the cells for 24 h, the culture media were replaced with fresh DMEM supplemented with 200 μM of the compounds 1771, compound 4, compound 8, and compound 9 and incubated further for an additional 24 h. The cytotoxicity of these drugs was measured using the LDH Cytotoxicity Assay Kit according to the manufacturer’s instruction (Thermo Scientific). The absorbance at 490 nm was measured with a CLARIOstar microplate reader (BMG Labtech), and the reference wavelength was set at 630 nm.

[1] = tested on: S. aureus (strain Newman); test: Antimicrobial microdilution broth assay (growth inhibition); assay type: cell-based; conditions: for IC50: S. aureus strain Newman growth, OD600nm after 20 h at 37 °C, MH2 broth, mean ± s.e.m., n = 3
Experimental: All the compounds tested in this study were dissolved in dimethyl sulfoxide (DMSO) at an initial stock concentration of 20 mM and stored at −20 °C. These compounds were tested for their antimicrobial activity using the microdilution broth method[66] following the protocol described by Richter et al.[30] Briefly, overnight cultures of S. aureus (strain Newman) grown at 37 °C in cation-adjusted Mueller Hinton II (MH2) broth were adjusted to an OD600nm of 0.6 before back-diluted with a factor of 1:2000 with the same broth. After that, 200 μL of the diluted bacterial culture were dispensed into each well of 96-well plates supplemented with the compounds to the desired concentrations. The plates were then sealed with a moisture membrane barrier and incubated statically for 20 h at 37 °C. After that, the OD600nm values of the cultures in each well were measured using a CLARIOstar microplate reader (BMG Labtech). The procedures for the potentiation assays were by large the same as described above with some variations. In such assays, MRSA strain COL was grown in the 96-well plates supplemented with different concentrations of compound 9 with methicillin, carbenicillin, or polymyxin B in a checkerboard format. Their synergistic effects were quantified by OD600nm measurements using a CLARIOstar microplate reader (BMG Labtech).

[2] = tested on: LTA production in S. aureus (strain RN4220); test: Western blot (immunoblotting) of LTA in S. aureus cell extracts; assay type: cell-based; conditions: for LTA production: Western blot of S. aureus cell extracts, 10 μM in Figure S14, 100 μM for compound 8
Experimental: The procedures of LTA detection using Western Blot had previously been reported by Gründling et al.[52] To determine the effect of the compounds on LTA production, 10 mL cultures of S. aureus (strain RN4220) in MH2 broth were incubated in an orbital shaker at 37 °C with either the compounds or DMSO. When the control cultures had reached an OD600nm ∼ 1, the bacteria were pelleted and the OD600nm of the cultures normalized by resuspension with the appropriate amount of MH2 broth. Subsequently, 1 mL from each cultures was mixed with 0.5 mL of 0.1 mm glass beads, and the bacteria were lyzed by vortexing at 4 °C for 45 min. After lysis, glass beads were removed by centrifugation at 200g, and the supernatants were transferred to a new tube. The membrane-associated LTA from each culture were pelleted by an additional centrifugation step of the supernatant at 16,000g for 15 min before resuspension in 30 μL of 2× SDS. The samples were boiled at 80 °C for 20 min, and the solubilized fractions were loaded onto 15% SDS-polyacrylamide gels prior to electrophoresis at 120 V for 1.5 h. The LTA on the gels were electrotransferred onto FL-immobilon PVDF membranes at 25 V for another 1.5 h. After the electrotransfer, the membranes were blocked with 5% skimmed milk for 1 h and incubated with the antimouse LTA antibody (clone G43J, Thermo Fisher Scientific; 1:1000 dilution) overnight at 4 °C. After washing, the membranes were incubated with antimouse IRDye 680RD (1:10,000 dilution) for 1 h, washed, and visualized using the Odyssey CLx Imaging System.

[3] = Staphylococcus aureus, NEWMAN, 20 h

T1 sequence (Q2G093 218-646): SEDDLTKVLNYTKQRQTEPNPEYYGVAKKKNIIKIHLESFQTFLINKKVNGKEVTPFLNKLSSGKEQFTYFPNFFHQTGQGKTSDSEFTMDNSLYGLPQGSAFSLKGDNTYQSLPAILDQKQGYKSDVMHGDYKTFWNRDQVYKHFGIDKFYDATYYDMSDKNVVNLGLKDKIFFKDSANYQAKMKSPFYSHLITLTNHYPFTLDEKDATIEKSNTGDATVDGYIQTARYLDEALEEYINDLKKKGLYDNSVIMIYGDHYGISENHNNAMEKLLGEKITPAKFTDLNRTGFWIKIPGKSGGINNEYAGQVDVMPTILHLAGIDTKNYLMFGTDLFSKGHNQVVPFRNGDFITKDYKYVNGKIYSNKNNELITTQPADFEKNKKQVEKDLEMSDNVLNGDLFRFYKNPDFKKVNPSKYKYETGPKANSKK

| SMILES | direct binding to eLtaS (eLtaS; using ITC and DSF, DSF at 100 μM compound) | cytotoxicity (LDH release) (HEK293 cells) | decrease in antimicrobial potency compared with compound 8 ([1]; S. aureus growth) [fold] | IC50 [1] [µM] | IC50 [1, 3] [µM] | electrophoretic mobility of the LTA extracted from treated S. aureus ([2]; Western blot, 100 μM compound) | shift of the melting temperature of eLtaS (eLtaS; DSF, 5 μM eLtaS, across the range of concentrations tested) | improvement in antimicrobial potency ([1]; compound 4 compared with 1771, S. aureus growth) [fold] | LTA production [2] | LTA production ([2]; listed as compound 4) |
| --- | --- | --- | --- | --- | --- | --- | --- | --- | --- | --- |
| S=C(Nc1ccc(Cl)cc1)Nc1ccc(Sc2nc3ccccc3[nH]2)cc1 [Compound 9] | binds directly to eLtaS | not cytotoxic | 4 | 117 | 117 | smearing effect |  |  |  |  |
| O=C(COC(=O)c1cn(-c2ccccc2)nc1-c1cccs1)Nc1nnc(-c2ccccc2)o1 [Compound 4] |  | non-cytotoxic |  | 4.06 ± 0.4 | 4.1 |  | shifted the melting temperature of eLtaS more so than 1771 | 4 | able to reduce LTA production | decrease LTA production in a dose-dependent manner |
